Assay results as given in patent publication US20240190851A1, “FURAN FUSED RING-SUBSTITUTED GLUTARIMIDE COMPOUND” (MEDSHINE DISCOVERY INC., priority 2021, published 2024).
Where a name gives a salt, the structure may show the parent alone.

Experiments:
androgen receptor AR = biological target: T1, androgen receptor AR (Homo sapiens, UniProt P10275, T878A); experiment: AR degradation in LNCaP cells by ICW method; format: cell-based; settings: 24 hours
T1 construct: degradation effect of compounds on androgen receptor AR in LNCaP cells; endogenous in cells; host or cells: LNCaP
T1 sequence (P10275 1-920 T878A): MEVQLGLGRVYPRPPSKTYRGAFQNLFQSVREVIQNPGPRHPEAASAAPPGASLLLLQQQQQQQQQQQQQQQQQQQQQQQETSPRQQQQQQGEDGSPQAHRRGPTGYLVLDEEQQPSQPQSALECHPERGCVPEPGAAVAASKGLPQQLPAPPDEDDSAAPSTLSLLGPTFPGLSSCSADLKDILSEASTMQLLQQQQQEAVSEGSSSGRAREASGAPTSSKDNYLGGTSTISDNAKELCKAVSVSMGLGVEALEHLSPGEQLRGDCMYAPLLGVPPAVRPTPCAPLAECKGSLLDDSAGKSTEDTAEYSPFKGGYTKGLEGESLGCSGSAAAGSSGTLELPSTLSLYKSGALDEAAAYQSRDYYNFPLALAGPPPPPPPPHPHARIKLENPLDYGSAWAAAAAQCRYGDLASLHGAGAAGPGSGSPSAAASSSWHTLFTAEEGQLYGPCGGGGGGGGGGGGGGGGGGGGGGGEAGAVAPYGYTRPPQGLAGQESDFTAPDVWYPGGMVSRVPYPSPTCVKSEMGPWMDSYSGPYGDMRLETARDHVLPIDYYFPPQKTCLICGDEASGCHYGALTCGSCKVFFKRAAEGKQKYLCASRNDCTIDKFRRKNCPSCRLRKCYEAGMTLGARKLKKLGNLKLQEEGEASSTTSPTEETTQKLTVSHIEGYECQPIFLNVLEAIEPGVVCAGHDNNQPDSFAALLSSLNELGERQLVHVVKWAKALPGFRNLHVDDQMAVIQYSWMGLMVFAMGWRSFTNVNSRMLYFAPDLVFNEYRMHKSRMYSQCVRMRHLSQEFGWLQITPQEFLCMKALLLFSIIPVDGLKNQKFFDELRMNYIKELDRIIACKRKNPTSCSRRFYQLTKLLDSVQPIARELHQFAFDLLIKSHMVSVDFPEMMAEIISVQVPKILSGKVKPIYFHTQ
Method: Experimental purpose: To test the degradation effect of compounds on androgen receptor AR in LNCaP cells by ICW method.
Day 1 • 1. The cell culture medium, 0.025% trypsin, and phosphate buffered saline were preheated in a 37° C. water bath. • 2. Cells digested by trypsin were centrifuged at 1000 rpm for 5 minutes. The supernatant was discarded, and then the cells were resuspended in fresh culture medium. • 3. The cells were inoculated in a COL-Coated CellCarrier-384 plate at a density of 4 k/[…]/well. • 4. The 384 cell plate inoculated with cells was placed in an ultra-clean bench for 10 minutes. • 5. The cell plate was cultured overnight in a CO2 cell incubator.
Day 2 • 1. The compound at a concentration of 10 mM was diluted to 3 mM (3 μL+7 μL of dimethyl sulfoxide) before serial dilution. • 2. The compound was serially diluted 3-fold (4 μL+8 μL) in an Echo plate using Bravo. • 3. ZPE and HPE control wells were setup, and the ZPE control wells were dimethyl sulfoxide. • 4. The Echo plate was centrifuged at 1000 rpm for 1 minute, and then the diluted compound was transferred from the Echo plate to an intermediate plate using Echo with 200 nL/well. • 5. To the intermediate plate was added the cell culture medium using Multidrop combi with […]. • 6. The intermediate plate was shaken on a horizontal shaker for 1 minute to mix the compound well with the culture medium. • 7. The compound was transferred from the intermediate dilution plate to the cell plate using Bravo with 4 μL/well. • 8. The cell plate was shaken on the horizontal shaker for 1 minute, and centrifuged at 800 rpm for 30 seconds. • 9. The cell plate was returned to the CO2 incubator, and cultured for another 24 hours.
Day 3 • 1. 4% paraformaldehyde was removed from the refrigerator and brought to room temperature. • 2. The cell plate was removed from the incubator. • 3. To the cell plate was directly added 4% paraformaldehyde with 40 μL/well. • 4. The plate was incubated at room temperature for 20 minutes. • 5. The culture medium was manually shaken off from the cell plate, inverted in a centrifuge, and centrifuged at 800 rpm for 7 seconds to fully remove the residual culture medium. • 6. To the cell plate was added 4% paraformaldehyde with 25 μL/well. • 7. The plate was incubated at room temperature for 30 minutes. • 8. The paraformaldehyde solution was manually shaken off from the cell plate, inverted in the centrifuge, and centrifuged at 800 rpm for 7 seconds. • 9. 0.1% Trition was added with 25 μL/well. • 10. The plate was incubated at room temperature for 10 minutes. • 11. The 0.1% Trition solution was manually shaken off from the cell plate, inverted in the centrifuge, and centrifuged at 800 rpm for 7 seconds. • 12. Intercept® (PBS) blocking buffer was added with 25 μL/well. • 13. The plate was incubated at room temperature for 1 hour. • 14. The Intercept® (PBS) blocking buffer solution was manually shaken off from the cell plate, inverted in the centrifuge, and centrifuged at 800 rpm for 7 seconds. • 15. Primary antibody solution was added with 20 μL/well. The cell plate was placed in the centrifuge, and centrifuged at 800 rpm for 7 seconds. • 16. The cell plate was sealed, and then incubated overnight at 4° C.
Day 4 • 1. The primary antibody solution was manually shaken off from the cell plate, inverted in the centrifuge, and centrifuged at 800 rpm for 7 seconds. • 2. The plate was washed three times with 110 μL of PBS. • 3. The cell plate was inverted in the centrifuge, and centrifuged at 800 rpm for 7 seconds. • 4. Secondary antibody and DAPI solution was added with 20 μL/well. The cell plate was placed in the centrifuge, and centrifuged at 800 rpm for 7 seconds. • 5. The plate was incubated at room temperature for 1 hour. • 6. The secondary antibody and DAPI solution was manually shaken off from the cell plate, inverted in the centrifuge, and centrifuged at 800 rpm for 7 seconds. • 7. […]

[1] = test system: human prostate cancer LNCaP cells; experiment: Antiproliferative effect in LNCaP cells (CellTiter-Glo, 6 days); format: cell-based; settings: 144 h
Method: In this experiment, the inhibitory effect of the test compound on cell proliferation in human prostate cancer LNCaP cells was detected.
The tumor cell lines were cultured in a 37° C., 5% CO2 incubator under the above culture conditions. Regular passage, and cells in logarithmic growth phase were taken for plating.
2. Cell Plating • (1) Cells were stained with trypan blue and viable cells were counted; • (2) the cell concentration was adjusted to an appropriate concentration;
• (3) 90 μL of cell suspension per well was added to the culture plate as shown in the table above, and cell-free culture medium was added to the blank control well; • (4) the culture plate was cultured overnight in a 37° C., 5% CO2 incubator with 100% relative humidity.
Preparation of stock solution storage plate with 400 times the initial concentration of the compound: The compound was serially diluted with DMSO from the highest concentration to the lowest concentration. The solution was prepared as needed each time.
Preparation of Working Solution with 10 Times the Initial Concentration of Compounds and Cell Treatment with Compounds • (1) To a V-bottom 96-well plate was added 78 μL of cell culture medium, and 2 μL of compound was pipetted from a stock solution storage plate with 400 times the initial concentration of the compound and added to the cell culture medium of the 96-well plate. To vehicle control and blank control was added 2 μL of DMSO. After the compound or DMSO was added, blowing with a pipette and mixing well were carried out. • (2) Administration: 10 μL of a working solution with 10 times the initial concentration of the compound was added to the cell culture plate. To vehicle control and blank control was added 10 μL of DMSO-cell culture medium mixture. • (3) The 96-well plate was returned to the incubator and cultured for 6 days.
The following steps were performed according to the instructions of Promega CellTiter-Glo luminescent cell viability assay kit (Promega-G7573). • (1) CellTiter-Glo buffer was melted and brought to room temperature; • (2) CellTiter-Glo substrate was brought to room temperature; • (3) CellTiter-Glo working solution was prepared by adding 100 mL of CellTiter-Glo buffer to a vial of CellTiter-Glo substrate to dissolve the substrate; • (4) the mixture was slowly vortexed and shaken to be fully dissolved; • (5) the cell culture plate was taken out and left for 30 minutes to equilibrate to room temperature; • (6) 50 μL of CellTiter-Glo working solution was added per well (equal to half the volume of cell culture medium per well). The cell plate was wrapped in aluminum foil to be protected from light; • (7) the culture plate was shaken on an orbital shaker for 2 minutes to induce cell lysis; (8) the culture plate was left at room temperature for 10 minutes to stabilize the luminescent signal; • (9) the luminescent signal was detected on a 2104 EnVision plate reader.
The inhibition rate (IR) of the test compound was calculated using the following formula: IR (%)=(RLU vehicle control−RLU compound)/(RLU vehicle control−RLU blank control)×100%. The inhibition rates of compounds at different concentrations were calculated in Excel, and then GraphPad Prism software was used to plot inhibition curves and calculate relevant parameters, including minimum inhibition rate, maximum inhibition rate, and ICSO.

[2] = test system: human prostate cancer LNCaP xenograft tumor; experiment: In vivo pharmacodynamic study, LNCaP subcutaneous xenograft tumor CB-17 SCID model; design: species or system CB-17 SCID mice; settings: Enzalutamide 20 mg/kg p.o. QD
Method: Human prostate cancer LNCaP cells (ECACC-89110211) were cultured in vitro in a monolayer under the culture conditions of RPMI-1640 medium with 10% fetal bovine serum, […], and 100 μg/mL streptomycin, and cultured in a 37° C., 5% CO2 incubator.
Routine digestion with trypsin-EDTA was performed twice a week for passaging. When the cell saturation density was 80% to 90% and the number of cells reached the required level, the cells were collected, counted, and inoculated.
CB-17 SCID mice, 6 to 8 weeks old, male, weighing 18 to 22 g.
0.2 mL (1×10^7) of LNCaP cells (with matrix gel, volume ratio of 1:1) were subcutaneously inoculated on the right back of each mouse. The mice were subjected to surgical castration when the average tumor volume reached approximately 80 mm^3, and grouping and administration were initiated when the average tumor volume reached 166 mm^3.
Tumor diameters were measured twice a week with a vernier caliper. The formula for calculating tumor volume was: V=0.5a×b^2, wherein a and b represented the long and short diameters of the tumor, respectively.
The antitumor efficacy of compounds was evaluated by TGI (%). TGI (%) reflected the tumor growth inhibition rate. TGI (0%)=[(1−(average tumor volume at the end of administration in a treatment group−average tumor volume at the beginning of administration in this treatment group))/(average tumor volume at the end of treatment in the vehicle control group−average tumor volume at the beginning of treatment in the vehicle control group)]×100%.

N#Cc1ccc(O[C@H]2CC[C@H](NC(=O)c3ccc(N4CCC(CN5CCN(c6ccc7c(ccc8occ(C9CCC(=O)NC9=O)c87)c6)CC5)CC4)nn3)CC2)cc1Cl (some centres unmarked) [Hydrochloride of WX014]
DC50 (androgen receptor AR): 22.4 nM
Dmax (androgen receptor AR): 76.2%

CC1(C)C(=O)N(c2ccc(C#N)c(C(F)(F)F)c2)C(=S)N1c1ccc(OCCN2CCN(CC(=O)Nc3cccc4c3ccc3occ(C5CCC(=O)NC5=O)c34)CC2)c(F)c1 (centres unmarked) [WX009]
DC50 (androgen receptor AR): 10.1 nM
Dmax (androgen receptor AR): 64.7%

CC1(C)C(=O)N(c2ccc(C#N)c(C(F)(F)F)c2)C(=S)N1c1ccc(OCCN2CCN(CC(=O)Nc3ccc4occ(C5CCC(=O)NC5=O)c4c3)CC2)c(F)c1 (centres unmarked) [WX001]
IC50 [1]: 333 nM

CC1(C)C(=O)N(c2ccc(C#N)c(C(F)(F)F)c2)C(=S)N1c1ccc(OCCN2CCN(CC(=O)Nc3ccc4c(ccc5occ(C6CCC(=O)NC6=O)c54)c3)CC2)c(F)c1 (centres unmarked) [WX003]
IC50 [1]: 230 nM

CC1(C)C(=O)N(c2ccc(C#N)c(C(F)(F)F)c2)C(=S)N1c1ccc(OCCN2CCN(C3(C(=O)Nc4ccc5occ(C6CCC(=O)NC6=O)c5c4)CC3)CC2)c(F)c1 (centres unmarked) [WX005]
IC50 [1]: 190 nM

CNC(=O)c1ccc(N2C(=S)N(c3ccc(C#N)c(C(F)(F)F)c3)C(=O)C2(C)C)cc1F [Enzalutamide, reference compound]
Tumor volume (Day 0) ([2]; Day 0, start of administration): 166 ± 18 mm^3
TGI (Day 21) ([2]; Day 21): 101.9%
Tumor volume (Day 21) ([2]; Day 21): 157 ± 37 mm^3

CC1(C)C(=O)N(c2ccc(C#N)c(C(F)(F)F)c2)C(=S)N1c1ccc(OCCN2CCN(CCCc3ccc4c(C5CCC(=O)NC5=O)coc4c3)CC2)c(F)c1 (centres unmarked) [WX004]
IC50 [1]: 25 nM
